{"source": "patent US20120040895A1", "about": "“PEPTIDE AVAILABILITY” (priority 2008, published 2012)", "origin": "cited, not measured here"}
{"smiles": "CC[C@H](C)[C@H](N)C(=O)N1CCC[C@H]1C(=O)N1CCC[C@H]1C(=O)O", "note": "[IPP, Isoleucine-Proline-Proline]", "values": [{"measurement": "Further increase of AUC when consumed with the meal", "setting": "yoghurt drink consumed with breakfast, versus fasted state", "result": 30, "unit": "%"}, {"measurement": "Increase of plasma IPP level (area under the concentration vs. time curve) compared to a control drink", "setting": "yoghurt drink drunk in overnight fasted state 30 min prior to breakfast", "result": "more than two-fold"}]}
